Experimental data from US20150094217A1, “TEST FOR DIAGNOSING RESISTANCE TO AZACITIDINE” (UNIVERSITÉ NICE SOPHIA ANTIPOLIS, priority 2012, published 2015).

Experiments:
[1] = Overall survival (Kaplan-Meier) of MDS or AML patients treated with AZA, cohort 1; type: in vivo, human
Text: The comparison of the overall survival with transplantation according to Kaplan-Meier was examined for patients with MDS or AML treated with AZA, as well as the percentage of cells expressing BCL2L10 in their bone marrow.
An overall survival of 3 months was estimated at 95% for the sub-groups weakly expressing BCL2L10 compared with 51% for the sub-groups strongly expressing BCL2L10. For all of the patients in the sub-group strongly expressing BCL2L10, the disease progressed.

SKM1-S cells = assay: Cell metabolism by XTT test after azacitidine stimulation; type: cell-based; conditions: 1 μM azacitidine, 24 h
Protocol: The SKM1-S and SKM1-R cells are transfected with an interfering RNA:Luc siRNA, BCL2L10 siRNA or Bcl-2 siRNA. After 72 h of transfection, the cells are stimulated with 1 μM of azacitidine.
In FIG. 7, the cell metabolism is measured 24 hours after stimulation by means of the XTT test ([…]). The results shown correspond to the average standard error of the mean (±SEM) of three independent experiments performed four times.
To determine whether the overexpression of BCL2L10 is a cause rather than a consequence of azacitidine resistance, the SKM1-S and SKM1-R cells were transfected with a control siRNA or with siRNA directed against one or the other of the BCL2L10 or Bcl-2 proteins, then treated for 24 h with or without azacitidine, before determining cell viability and apoptosis. […] In addition, apoptosis was the main mechanism by which the extinction of the expression of the BCL2L10 gene enabled azacitidine sensitization by increasing the quantity of active caspase-3.

For `Nc1ncn([C@@H]2O[C@H](CO)[C@@H](O)[C@H]2O)c(=O)n1` [Azacitidine], the “overall survival of 3 months” value ([1]; sub-groups strongly expressing BCL2L10, cohort 1) was 51%, the “overall survival of 3 months” value ([1]; sub-groups weakly expressing BCL2L10, cohort 1) was 95% and the cell metabolism (SKM1-S cells) was “loss in cell metabolism”.
